One may read the Tmax as the time from dosing to the highest level. Usually Cmax stands for the maximum level reached in the sampled fluid or tissue.

Each structure is given as a SMILES string. Several values for one entry are separate records, joined by “and”; a condition that tells them apart may be missing. Identical values can stand only once. Entries after “also recorded” stand apart in the source; their conditions may differ. Like-named read-outs stand apart in the source and are kept apart here. Marks after values point to notes of the source that are not given here.

A short description of this data set: Pharmacokinetics of ginsenosides in plasma after a single oral dose of 6 g FRG or RG, crossover clinical trial. The format is in vivo, human. To be noted: for AUC24 GMR (90% CI) / AUClast GMR (90% CI) / Cmax GMR (90% CI): geometric mean ratio FRG with respect to RG; for Tmax / AUC / Cmax / AUC(0-t): human, po. The protocol: This study was designed as a randomized, open-label, single-dose, 2-sequence, 2-period crossover study with a washout period of 2 weeks to compare the pharmacokinetic parameters of ginsenosides in RG and FRG. All subjects underwent a screening test for enrollment in the current study, and the enrolled subjects were randomly allocated into one of two sequence groups: sequence 1, and sequence 2. The subjects in sequence group 1 were administered 6 g of FRG extract with 200 mL water in the first period, and 6 g of RG extract with 200 mL water in the second period, after a washout period of 2 weeks from the first administration. Subjects in sequence group 2 were administered 6 g of RG extract with 200 mL water in the first period, and then 6 g of FRG extract with 200 mL water in the second period, after the same washout period. During each period, for groups 1 and 2, subjects were hospitalized at the clinical trial center of Kyung Hee University Hospital at 5 PM the day before FRG or RG administration. They received a standardized dinner and fasted, except for drinking water, until FRG or RG administration. The following day, subjects were administered FRG or RG at 8 AM according to the assigned sequence group, and were not allowed to eat until 1 PM. All participants were provided lunch and dinner by the study staff. They were discharged at 2 PM the day after dosing with FRG or RG, and visited the clinical trial center at 8 AM the day after discharge. To assess pharmacokinetic parameters, blood samples (9 mL) were serially collected into heparinized tubes just before (0 h) the dose of FRG or RG, and after the dose of FRG or RG at the following time points: 0.5, 1, 2, 3, 4, 5, 6, 7, 8, 10, 12, 14, 24, and 30 h during hospitalization, and 48 h at the outpatient visit. Blood samples were placed into heparinized tubes and centrifuged immediately at 3500× g, 10 min, and −4 °C. Plasma was stored at −70 °C.
CY, CK, PPD, PPT, and Rh2 were analyzed as previously described. An Agilent 1200 series (Agilent Technologies, Santa Clara, CA, USA) or Shimadzu Nexera X2 (Shimadzu, Tokyo, Japan), and Applied Biosystems MDS SCIEX API 4000 Triple Quadrupole Mass Spectrometer (SCIEX, Framingham, MA, USA) with an ESI source in the negative ion mode, were used. Data were analyzed and processed using the Analyst 1.6.2 program (SCIEX, Framingham, MA, USA). Rb1 and F2 were analyzed using Elute UHPLC (Bruker, Billerica, MA, USA) and an EVOQ Elite triple quadrupole mass spectrometer (Bruker, Billerica, MA, USA) with an ESI source in positive ion mode. Data were acquired and processed using the Analyst 1.6.2 program (SCIEX, Framingham, MA, USA), and Bruker Daltonic MS Workstation 8.2.1 (Bruker, Billerica, MA, USA). Ginsenosides standards (Rb1, Rh2 and C-Y) were provided by the Ambo Institute (Daejeon, Republic of Korea). Ginsenosides standards (F2, CK, PPD and PPT) were provided by Ace Enzyme (Kyunggi-do, Republic of Korea). Digoxin, diphenhydramine hydrochloride, formic acid, ammonium acetate, and dimethyl sulfoxide were purchased from Sigma Aldrich (Saint Louis, MO, USA). Methanol, acetonitrile, ethyl acetate, and methyl tertiary butyl ether were purchased from J.T. Baker (Philipsburg, NJ, USA) and purified water for HPLC analysis was obtained using AQUA max® by Younglin (Kyunggi-do, Republic of Korea) water purification system. The final concentrations of the calibration standards were 0.5, 1, 2, 5, 10, 25, and 50 ng/mL, and those of the QC samples were 1.5, 7.5, and 40 ng/mL. The final concentrations of the CK calibration standard were 5, 50, 250, 500, 1000, 1500, and 2500 ng/mL, and those of the QC samples were 15, 1200, and 2000 ng/mL. The human plasma samples were taken out of the −70 °C freezer and thawed at room temperature for the bioanalysis. […]

The mark [1] stands for this setting: plasma, after 6 g FRG oral single dose, median (min, max), read-out: Tmax.
Setting [2] is: plasma, plasma, after 6 g FRG oral single dose, 0 to 24 h, mean ± SD, read-out: AUC24.
The mark [3] stands for this setting: plasma, plasma, after 6 g FRG oral single dose, healthy volunteers, mean ± SD, n = 15, read-out: Cmax.
The mark [4] stands for this setting: plasma, plasma, after 6 g FRG oral single dose, mean ± SD, read-out: AUClast.
Where [5] appears, read: plasma, plasma, after 6 g RG oral single dose, 0 to 24 h, mean ± SD, read-out: AUC24.
Setting [6] is: plasma, plasma, after 6 g RG oral single dose, healthy volunteers, mean ± SD, n = 15, read-out: Cmax.
Setting [7] is: plasma, plasma, after 6 g RG oral single dose, mean ± SD, read-out: AUClast.
The mark [8] stands for this setting: plasma, after 6 g RG oral single dose, median (min, max), read-out: Tmax.

Turning to `CC(C)=CCC[C@](C)(O[C@@H]1O[C@H](CO)[C@@H](O)[C@H](O)[C@H]1O)[C@H]1CC[C@]2(C)[C@@H]1[C@H](O)C[C@@H]1[C@@]3(C)CC[C@H](O)C(C)(C)[C@@H]3CC[C@]12C` [CK, compound K], the “AUC24 GMR (90% CI)” value was 64.86 fold and 64.86 (51.12, 82.29) * fold; the “AUClast GMR (90% CI)” value is 74.53 fold and 74.53 (59.32, 93.64) * fold; the “Cmax GMR (90% CI)” value was 69.23 fold and 69.23 (55.93, 85.69) * fold. Also, where the note is “FRG versus RG”, the “Difference of median Tmax, FRG higher than RG” value was determined as 1 h. In addition, under setting [1], the Tmax worked out at 3.02 h. Further, under setting [2], the AUC came to 8710 ± 2360 ng·h/mL. In addition, under setting [3], the Cmax was found to be 1550 ± 394 ng/mL. The AUC(0-t) under setting [4] stood at 9440 ± 2620 ng·h/mL. Moreover, the AUC under setting [5] is 158 ± 125 ng·h/mL. Moreover, the highest concentration (Cmax) under setting [6] is 23.8 ± 12.2 ng/mL. Further, the AUC(0-t) under setting [7] stood at 145 ± 106 ng·h/mL.

For `CC(C)=CCC[C@](C)(O[C@@H]1O[C@H](CO[C@@H]2OC[C@H](O)[C@H](O)[C@H]2O)[C@@H](O)[C@H](O)[C@H]1O)[C@H]1CC[C@]2(C)[C@@H]1[C@H](O)C[C@@H]1[C@@]3(C)CC[C@H](O)C(C)(C)[C@@H]3CC[C@]12C` [CY, compound Y], the AUC (in vivo, AUC24) turned out to be 33.4 ± 9.82 ng·h/mL. For the same molecule, the AUC(0-t) (in vivo, AUClast) stood at 32.5 ± 9.44 ng·h/mL. The molecule further returned a Cmax (in vivo, Cmax) of 8.38 ± 2.22 ng/mL. The Tmax (in vivo, Tmax) was 3.02 h.

With `CC(C)=CCC[C@](C)(O[C@@H]1O[C@H](CO)[C@@H](O)[C@H](O)[C@H]1O)[C@H]1CC[C@]2(C)[C@@H]1[C@H](O)C[C@@H]1[C@@]3(C)CC[C@H](O[C@@H]4O[C@H](CO)[C@@H](O)[C@H](O)[C@H]4O)C(C)(C)[C@@H]3CC[C@]12C` [Ginsenoside F2], the Plasma concentrations entry (after 6 g RG, F2 except one subject) is recorded as “below the lower limit of quantification; also recorded: below the LLOQ”. Further, the Tmax under setting [1] is 4.03 h. Also, under setting [2], the AUC amounted to 142 ± 34.3 ng·h/mL. The Cmax under setting [3] came to 14.7 ± 3.58 ng/mL. Moreover, the AUC(0-t) under setting [4] was determined as 168 ± 47.4 ng·h/mL.

On to `CC(C)=CCC[C@](C)(O)[C@H]1CC[C@]2(C)[C@@H]1[C@H](O)C[C@@H]1[C@@]3(C)CC[C@H](O)C(C)(C)[C@@H]3CC[C@]12C` [PPD, protopanaxadiol], for which the “AUClast GMR (90% CI)” value is given as 4.97 (2.38, 10.34) ^‡ fold. Further, the Tmax under setting [1] was 12 h. Further, the time to peak (Tmax) under setting [8] is 27.1 h. Moreover, the AUC under setting [2] was 48.7 ± 41.1 ng·h/mL. The Cmax under setting [3] came to 5.65 ± 4.78 ng/mL. Under setting [4], the AUC(0-t) was determined as 92.2 ± 96.5 ng·h/mL. In addition, under setting [5], the AUC came to 13.9 ± 19.1 ng·h/mL. In addition, the highest concentration (Cmax) under setting [6] came to 1.99 ± 1.62 ng/mL. Moreover, the AUC(0-t) under setting [7] is 20.3 ± 25.1 ng·h/mL.

`CC(C)=CCC[C@](C)(O)[C@H]1CC[C@]2(C)[C@@H]1[C@H](O)C[C@@H]1[C@@]3(C)CC[C@H](O)C(C)(C)[C@@H]3[C@@H](O)C[C@]12C` [PPT, protopanaxatriol]: the “AUC24 GMR (90% CI)” value was 1.87 fold and 1.87 (1.16, 3.01) ^† fold; the “AUClast GMR (90% CI)” value is 1.76 fold and 1.76 (1.17, 2.65) ^† fold; the “Cmax GMR (90% CI)” value was 2.56 fold and 2.56 (1.83, 3.57) * fold. Under setting [1], the Tmax was 6 h. Besides, the Tmax under setting [8] was 19 h. Further, under setting [2], the AUC worked out at 63.7 ± 42.8 ng·h/mL. The Cmax under setting [3] was 8.92 ± 5.38 ng/mL. Also, under setting [4], the AUC(0-t) amounted to 83 ± 59.4 ng·h/mL. The AUC under setting [5] is 34.1 ± 24.7 ng·h/mL. Moreover, the maximum concentration (Cmax) under setting [6] came to 3.5 ± 2 ng/mL. Moreover, under setting [7], the AUC(0-t) came to 45.7 ± 32.1 ng·h/mL.

`CC(C)=CCC[C@](C)(O[C@@H]1O[C@H](CO[C@@H]2O[C@H](CO)[C@@H](O)[C@H](O)[C@H]2O)[C@@H](O)[C@H](O)[C@H]1O)[C@H]1CC[C@]2(C)[C@@H]1[C@H](O)C[C@@H]1[C@@]3(C)CC[C@H](O[C@@H]4O[C@H](CO)[C@@H](O)[C@H](O)[C@H]4O[C@@H]4O[C@H](CO)[C@@H](O)[C@H](O)[C@H]4O)C(C)(C)[C@@H]3CC[C@]12C` [Rb1]: the Plasma concentrations entry (after 6 g FRG) is “below the LLOQ”. Under setting [8], the Tmax stood at 8 h. For the same molecule, the AUC under setting [5] stood at 36.5 ± 25.6 ng·h/mL. Further, the maximum concentration (Cmax) under setting [6] was 2.33 ± 1.61 ng/mL. For the same molecule, the AUC(0-t) under setting [7] came to 62.4 ± 48.1 ng·h/mL.

For the molecule `CC(C)=CCC[C@](C)(O)[C@H]1CC[C@]2(C)[C@@H]1[C@H](O)C[C@@H]1[C@@]3(C)CC[C@H](O[C@@H]4O[C@H](CO)[C@@H](O)[C@H](O)[C@H]4O)C(C)(C)[C@@H]3CC[C@]12C` [Rh2], the “AUC24 GMR (90% CI)” value is 18.17 fold and 18.17 (12.4, 26.62) * fold; the “AUClast GMR (90% CI)” value is 18.47 fold and 18.47 (12.74, 26.78) * fold; the “Cmax GMR (90% CI)” value was 20.27 fold and 20.27 (15.13, 27.17) * fold. Further, under “in vivo, after 6 g FRG oral single dose, median (min, max), read-out: Tmax”, the Tmax stood at 3.02 h. Besides, the Tmax (in vivo, after 6 g RG oral single dose, median (min, max), read-out: Tmax) came out at 3 h. Where the note is “in vivo, plasma, after 6 g FRG oral single dose, 0 to 24 h, mean ± SD, read-out: AUC24”, the AUC was determined as 135 ± 44.4 ng·h/mL. The highest concentration (Cmax) (in vivo, plasma, after 6 g FRG oral single dose, healthy volunteers, mean ± SD, n = 15, read-out: Cmax) worked out at 33 ± 11.9 ng/mL. The AUC(0-t) (in vivo, plasma, after 6 g FRG oral single dose, mean ± SD, read-out: AUClast) was determined as 133 ± 42.6 ng·h/mL. For the same molecule, where the note is “in vivo, plasma, after 6 g RG oral single dose, 0 to 24 h, mean ± SD, read-out: AUC24”, the AUC was 8.97 ± 5.57 ng·h/mL. Besides, for the setting “in vivo, plasma, after 6 g RG oral single dose, healthy volunteers, mean ± SD, n = 15, read-out: Cmax”, the maximum concentration (Cmax) was 1.77 ± 1.17 ng/mL. For the same molecule, the AUC(0-t) (in vivo, plasma, after 6 g RG oral single dose, mean ± SD, read-out: AUClast) was found to be 8.35 ± 4.31 ng·h/mL.

The values above are taken from publication PMC9784495, “Pharmacokinetic Comparison of Ginsenosides between Fermented and Non-Fermented Red Ginseng in Healthy Volunteers” (Pharmaceutics, 2022).
